Counter-ions that a name gives are not always drawn.
Assay: In vitro mucosal-to-serosal vancomycin transport, modified Ussing chambers, jejunum
Assay type: in vitro ADME, rat
Details: male, rat
Description: We investigated regional variation in permeation of vancomycin (VCM) across various segments of rat intestine and colon in vitro by mounting isolated segments of rat intestine and colon between horizontal modified Ussing chambers. The effects of drug concentration and of addition of a p-glycoprotein inhibitor or permeation enhancer(s) as formulation additives on VCM permeation were also studied in vitro using segments of rat jejunum.
Methods: A modified Ussing system (Easy mount Ussing system, Physiological Instruments Inc., CA, Item # EM-CSYS-8) with eight sets of chambers was used for all in vitro studies; each set consisted of two parallel diffusion chambers, a heating block for temperature control, needle valves for gas flow adjustment and gas mixing, and Ag/AgCl voltage and current electrodes for measuring transepithelial voltage and for passing current.
Harvesting of required small intestinal or colon segments of a male rat was performed using experimental procedures described in the literature (Gotoh et al., J Biomol Screen (2005) 10:517-23). The harvested segments of small intestine or colon were mounted on sliders placed between the two horizontal chambers of a modified Ussing system.
VCM was dissolved in HEPES buffer pH 7.4 (Table 1) previously saturated with 100% O2 or HEPES buffer containing additives selected from permeation enhancer(s) and/or an efflux transport inhibitor (Table 2) to obtain predetermined concentrations of drug and additive(s).
Drug transport across epithelial membranes of harvested rat small intestine and colon segments, in mucosal-to-serosal (M-to-S) direction, was studied using modified Ussing Chambers. Aliquots of HEPES buffer (5 ml) were initially added to both the mucosal and serosal chambers and allowed to equilibrate for 20 minutes. The HEPES buffer in the mucosal chamber was replaced by a study sample containing VCM alone or VCM and selected additive(s) in HEPES buffer, e.g., 5 mg/mL of VCM dissolved in HEPES buffer containing 10% w/w Labrasol®. Aliquots of 0.5 mL buffer solutions were removed periodically from serosal chambers, and replaced with equal volumes of fresh warm (37±2° C.) HEPES buffer previously saturated with 100% O2. […]
Changes in transepithelial short-circuit current (in micro-Amps) and membrane resistance (in Ohms) as a function of time were monitored continuously during in vitro studies to serve as indicators of tissue viability and drug permeability, respectively. The buffer samples from the receptor chambers were analyzed for VCM content on a high pressure liquid chromatograph (HPLC; Hewlett Packard Model 1100 series).
The analysis of VCM samples was performed using a reverse phase gradient HPLC method, with a Hypersil BDS C18 column, 5 μm, 150×4.6 mm., mobile phase consisting of 5 mM potassium phosphate monobasic in water (pH 3) as solvent A and acetonitrile as solvent B at a flow rate of 1 ml/min (Farin et al., J Pharm Biomed Anal (1998) 18:367-72). The eluant was monitored by a UV/diode array detector at 280 nm.
To compare data obtained from different in vitro experiments, the apparent permeability coefficients were calculated using the equation: […]
Where dQ/dt is the linear appearance rate of mass in receiver compartment, C0 is the initial solute concentration in donor compartment, and A is the surface area (Luo et al., Drug Metab Dispos (2002) 30:763-70).

Question: Which Papp at 2.5 hr, 5 mg/ml (pH 7.4, 5 mg/ml, HEPES buffer alone, jejunum) does the source give for CN[C@H](CC(C)C)C(=O)N[C@H]1C(=O)N[C@@H](CC(N)=O)C(=O)N[C@H]2C(=O)N[C@H]3C(=O)N[C@H](C(=O)N[C@H](C(=O)O)c4cc(O)cc(O)c4-c4cc3ccc4O)[C@H](O)c3ccc(c(Cl)c3)Oc3cc2cc(c3O[C@@H]2O[C@H](CO)[C@@H](O)[C@H](O)[C@H]2O[C@H]2C[C@](C)(N)[C@H](O)[C@H](C)O2)Oc2ccc(cc2Cl)[C@H]1O [Vancomycin hydrochloride] here?
Answer: The Papp at 2.5 hr, 5 mg/ml was 0.62 ± 0.07 ×10⁻⁶ cm/s.

Question: And the Papp at 5 mg/ml (pH 7.4, 5 mg/ml, jejunum, 1.0 mM sodium decanoate in mucosal chamber)?
Answer: Its Papp at 5 mg/ml is 1.74 ± 0.1 ×10⁻⁶ cm/s.

Question: And the Papp at 5 mg/ml (pH 7.4, 5 mg/ml, jejunum, 1.0 mM sodium decanoate in serosal chamber)?
Answer: Its Papp at 5 mg/ml is 0.6 ± 0.02 ×10⁻⁶ cm/s.

Question: What about the Papp at 5 mg/ml (pH 7.4, 5 mg/ml, jejunum, HEPES buffer containing 5% w/w Gelucire ® 44/14) of the same compound?
Answer: The Papp at 5 mg/ml was 0.78 ± 0.03 ×10⁻⁶ cm/s.

Question: What about the Papp at 5 mg/ml (pH 7.4, 5 mg/ml, jejunum, HEPES buffer containing 5% w/w Gelucire ® 44/14 + 5% w/w Labrasol ®) of the same compound?
Answer: Its Papp at 5 mg/ml is 0.71 ± 0.03 ×10⁻⁶ cm/s.

Question: And the Papp at 5 mg/ml (pH 7.4, 5 mg/ml, jejunum, HEPES buffer containing 5% w/w Polysorbate-80)?
Answer: The Papp at 5 mg/ml was 0.88 ± 0.09 ×10⁻⁶ cm/s.

Question: What about the Papp at 5 mg/ml (pH 7.4, 5 mg/ml, jejunum, HEPES buffer containing 5% w/w Polysorbate-80 + 5% w/w Labrasol ®) of the same compound?
Answer: Its Papp at 5 mg/ml is 0.53 ± 0.06 ×10⁻⁶ cm/s.

Question: And the Papp at 5 mg/ml (pH 7.4, 5 mg/ml, jejunum, HEPES buffer containing 5% w/w Vitamin E TPGS + 5% w/w Labrasol ®)?
Answer: Its Papp at 5 mg/ml is 0.56 ± 0.06 ×10⁻⁶ cm/s.

Question: And the Papp at 5 mg/ml (pH 7.4, 5 mg/ml, jejunum, HEPES buffer containing 10% w/w Labrasol ®)?
Answer: The Papp at 5 mg/ml was 0.36 ± 0.06 ×10⁻⁶ cm/s.

Question: What about the Papp at 5 mg/ml (pH 7.4, 5 mg/ml, jejunum, HEPES buffer containing 20% w/w Bile salts) of the same compound?
Answer: Its Papp at 5 mg/ml is 3.67 ± 0.58 ×10⁻⁶ cm/s.

Question: And the Papp at 2.5 hr, 10 mg/mL (pH 7.4, 10 mg/mL, HEPES buffer alone, jejunum)?
Answer: Its Papp at 2.5 hr, 10 mg/mL is 0.57 ± 0.13 ×10⁻⁶ cm/s.

Question: And the Papp at 2.5 hr, 25 mg/mL (pH 7.4, 25 mg/mL, HEPES buffer alone, jejunum)?
Answer: Its Papp at 2.5 hr, 25 mg/mL is 0.54 ± 0.69 ×10⁻⁶ cm/s.

Question: What about the Papp at 2.5 hr, 50 mg/mL (pH 7.4, 50 mg/mL, HEPES buffer alone, jejunum) of the same compound?
Answer: Its Papp at 2.5 hr, 50 mg/mL is 0.39 ± 0.47 ×10⁻⁶ cm/s.

Question: And the Papp at 2.5 hr, 5 mg/mL (pH 7.4, jejunum, in the presence of 10% w/w Labrasol®)?
Answer: Its Papp at 2.5 hr, 5 mg/mL is 0.36 ×10⁻⁶ cm/s.

Question: What about the Papp at 2.5 hr, 5 mg/ml (pH 7.4, with quinidine 0.15 mM in the mucosal chamber, 5 mg/ml, jejunum, 0.15 mM Quinidine in mucosal chamber) of the same compound?
Answer: Its Papp at 2.5 hr, 5 mg/ml is 0.79 ± 0.08 ×10⁻⁶ cm/s.

Question: And the Papp at 2.5 hr, 5 mg/ml (pH 7.4, with quinidine 0.15 mM in the serosal chamber, 5 mg/ml, jejunum, 0.15 mM Quinidine in serosal chamber)?
Answer: Its Papp at 2.5 hr, 5 mg/ml is 2.06 ± 0.16 ×10⁻⁶ cm/s.

— patent publication US20090111736A1, “Orally-Absorbed Solid Dose Formulation for Vancomycin” (SRI International, priority 2007, published 2009)
